US20070299087A1, “New Compounds 319” (AstraZeneca AB, priority 2006, published 2007)

Target: T1, human β-Secretase (sBACE-Fc) (Homo sapiens, UniProt P56817)
T1 construct: The soluble part of the human β-Secretase (AA 1-AA 460) was cloned; Fc domain of IgG1 (C); made in house
Test: TR-FRET assay (β-secretase enzyme, substrate (Europium)[…](Qsy7))
Assay type: biochemical
Method: The enzyme used in the IGEN Cleavage-, Fluorescent-, TR-FRET- and BiaCore assays is described as follows:
The soluble part of the human β-Secretase (AA 1-AA 460) was cloned into the ASP2-Fc10-1-IRES-GFP-neoK mammalian expression vector. The gene was fused to the Fc domain of IgG1 (affinity tag) and stably cloned into HEK 293 cells. Purified sBACE-Fc is stored in Tris buffer, pH 9.2 and has a purity of 95%.
Enzyme was diluted to 6 μg/mL and the substrate (Europium)[…](Qsy7) to 200 nM in reaction buffer (NaAcetate, chaps, triton x-100, EDTA pH 4.5). Compounds were diluted to the desired concentration in dimethyl sulfoxide (final dimethyl sulfoxide concentration in assay is 5%). The assay was done in a Costar 384 well round bottom, low volume, non-binding surface plate (Corning #3676). Enzyme (9 μL) and 1 μL of compound in dimethyl sulfoxide was added to the plate, mixed and pre-incubated for 10 min. Substrate (10 μL) was added and the reaction proceeded in the dark for 15 min at RT. The reaction was stopped with the addition of 7 μL NaAcetate, pH 9. The fluorescence of the product was measured on a Victor II plate reader with an excitation wavelength of 340 nm and an emission wavelength of 615 nm. […] The dimethyl sulfoxide control defined the 100% activity level and 0% activity was defined by exclusion of the enzyme (using reaction buffer instead).

T1 sequence (P56817 22-460): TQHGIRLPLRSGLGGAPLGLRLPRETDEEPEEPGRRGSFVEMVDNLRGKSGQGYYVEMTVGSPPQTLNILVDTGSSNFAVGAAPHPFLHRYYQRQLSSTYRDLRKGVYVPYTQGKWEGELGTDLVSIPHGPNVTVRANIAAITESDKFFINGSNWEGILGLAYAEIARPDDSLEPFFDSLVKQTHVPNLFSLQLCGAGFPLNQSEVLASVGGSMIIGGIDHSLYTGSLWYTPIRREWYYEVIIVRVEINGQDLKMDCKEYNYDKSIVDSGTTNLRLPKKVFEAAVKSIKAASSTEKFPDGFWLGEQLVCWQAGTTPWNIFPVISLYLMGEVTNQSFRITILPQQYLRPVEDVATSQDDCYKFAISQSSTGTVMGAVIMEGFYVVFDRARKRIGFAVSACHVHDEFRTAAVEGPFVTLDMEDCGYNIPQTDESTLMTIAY

Row | Compound | IC50 [nM]
1 | COc1cccc(-c2cccc(C3(c4ccco4)N=C(N)N4CCCN=C43)c2)c1 (stereo not shown) [Example 51, 8-(2-Furyl)-8-(3′-methoxybiphenyl-3-yl)-2,3,4,8-tetrahydroimidazo[1,5-a]pyrimidin-6-amine acetate] | 472
2 | Cc1nc(C2(c3cccc(-c4cc(Cl)cc(Cl)c4)c3)N=C(N)N3CCCN=C32)cs1 (stereo not shown) [Example 57, 8-(3′,5′-Dichlorobiphenyl-3-yl)-8-(2-methyl-1,3-thiazol-4-yl)-2,3,4,8-tetrahydroimidazo[1,5-a]pyrimidin-6-amine acetate] | 3790
3 | NC1=NC(c2ccsc2)(c2cccc(-c3cc(Cl)cc(Cl)c3)c2)C2=NCCCN12 (stereo not shown) [Example 63, 8-(3′,5′-Dichlorobiphenyl-3-yl)-8-(3-thienyl)-2,3,4,8-tetrahydroimidazo[1,5-a]pyrimidin-6-amine acetate] | 68
4 | NC1=NC(c2ccsc2)(c2cccc(-c3cccnc3F)c2)C2=NCCCN12 (stereo not shown) [Example 64, 8-[3-(2-Fluoropyridin-3-yl)phenyl]-8-(3-thienyl)-2,3,4,8-tetrahydroimidazo[1,5-a]pyrimidin-6-amine acetate] | 247
5 | NC1=NC(c2ccncc2)(c2cccc(-c3cccnc3F)c2)C2=NCC(F)(F)CN12 (stereo not shown) [Example 68, 3,3-Difluoro-8-[3-(2-fluoropyridin-3-yl)phenyl]-8-pyridin-4-yl-2,3,4,8-tetrahydroimidazo[1,5-a]pyrimidin-6-amine 0.75 acetate] | 59
6 | NC1=NC(c2ccncc2)(c2cccc(-c3cncc(F)c3)c2)C2=NCC(F)(F)CN12 (stereo not shown) [Example 71, 3,3-Difluoro-8-[3-(5-fluoropyridin-3-yl)phenyl]-8-pyridin-4-yl-2,3,4,8-tetrahydroimidazo[1,5-a]pyrimidin-6-amine acetate] | 120
7 | COc1cccc(-c2cccc(C3(c4ccncc4)N=C(N)N4CC(F)(F)CN=C43)c2)c1 (stereo not shown) [Example 72, 3,3-Difluoro-8-(3′-methoxybiphenyl-3-yl)-8-pyridin-4-yl-2,3,4,8-tetrahydroimidazo[1,5-a]pyrimidin-6-amine 1.25 acetate] | 68
8 | NC1=NC(c2ccncc2)(c2cccc(-c3cc(Cl)cnc3F)c2)C2=NCC(F)(F)CN12 (stereo not shown) [Example 73, 3,3-Difluoro-8-[3-(5-Chloro-2-fluoropyridin-3-yl)phenyl]-8-pyridin-4-yl-2,3,4,8-tetrahydroimidazo[1,5-a]pyrimidin-6-amine acetate] | 61
9 | NC1=NC(c2ccncc2)(c2ccc(F)c(-c3cccnc3F)c2)C2=NCC(F)(F)CN12 (stereo not shown) [Example 81, 3,3-Difluoro-8-[4-fluoro-3-(2-fluoropyridin-3-yl)phenyl]-8-pyridin-4-yl-2,3,4,8-tetrahydroimidazo[1,5-a]pyrimidin-6-amine acetate] | 49
10 | COc1cccc(-c2cc(C3(c4ccncc4)N=C(N)N4CC(F)(F)CN=C43)ccc2F)c1F (stereo not shown) [Example 82, 3,3-Difluoro-8-(2′,6-difluoro-3′-methoxybiphenyl-3-yl)-8-pyridin-4-yl-2,3,4,8-tetrahydroimidazo[1,5-a]pyrimidin-6-amine acetate] | 42
11 | COc1cncc(-c2cc(C3(c4ccncc4)N=C(N)N4CC(F)(F)CN=C43)ccc2F)c1 (stereo not shown) [Example 83, 3,3-Difluoro-8-[4-fluoro-3-(5-methoxypyridin-3-yl)phenyl]-8-pyridin-4-yl-2,3,4,8-tetrahydroimidazo[1,5-a]pyrimidin-6-amine 0.5 acetate] | 48
12 | NC1=NC(c2cccc(-c3cccnc3F)c2)(c2ccncc2F)C2=NCC(F)(F)CN12 (stereo not shown) [Example 90, 3,3-Difluoro-8-(3-fluoropyridin-4-yl)-8-[3-(2-fluoropyridin-3-yl)phenyl]-2,3,4,8-tetrahydroimidazo[1,5-a]pyrimidin-6-amine] | 290
13 | NC1=NC(c2cccc(-c3cncnc3)c2)(c2ccncc2F)C2=NCC(F)(F)CN12 (stereo not shown) [Example 91, 3,3-Difluoro-8-(3-fluoropyridin-4-yl)-8-(3-pyrimidin-5-ylphenyl)-2,3,4,8-tetrahydroimidazo[1,5-a]pyrimidin-6-amine] | 440
